24 compounds from US11807650B2, “NMDA receptor modulators and uses thereof” (Novartis AG, priority 2016, dated 2023) can be followed below.

Assay [1] has as its target T1, human GRIN1 (variant NR1-3) and GRIN2D expressed in HEK293 cells (Homo sapiens, UniProt O15399).
T1 construct: GenScript (GRIN2D synthesis) SC115601; host or cells: HEK293
Briefly: GluN2D PAM CIQ fluorescence assay (Fluo-8 calcium, FDSS 6000). The class given is cell-based. The note with it: relative to CIQ (100 uM) = 100%, read-out: NR2D Percent CIQ Avg Max Measured Effect. The procedure:
GluN2D PAM CIO Flourescence AssayHEK293 cells were transfected to express human GRIN1 (variant NR1-3, Origene, SKU #: SC115601, Rockville, Md.) and GRIN2D (NCBI locus NM_000836, sequence optimized and synthesized by GenScript) and grown as an adherent monolayer at 37° C., 5% CO2 in DMEM/Ham's F12+10% FBS (Hyclone SH3007.03T in the presence of 2.5 mM ARL-15896 (AdooQ Bioscience, Irvine Calif.). To prepare the cells for an experiment, they were rinsed with Dulbecco's PBS (Ca^2+ and Mg^2+ free) and detached from the flask with TrypLE™ Express (Life Technologies, Carlsbad, Calif.) using the manufacturer's recommended methods. Cells collected from the flask were washed twice in Ca^2+/Mg^2+-free Hanks Balanced Salt Solution+20 mM HEPES (HBSS), and counted and assessed for viability with trypan blue. Washed cells were then dye-loaded by resuspending in Fluo-8/AM calcium sensitive dye plus Component B (AAT Bioquest, Sunnyvale, Calif.) diluted in HBSS. To allow cells to take up fluo-8 dye, they were incubated in the dark for 15 min at 37° C., followed by 30 min at 22-25° C. After dye-loading, cells were washed and resuspended in HBSS and plated in 384-well plates (Falcon 353962; Corning, Big Flats, N.Y.) at 20,000-30,000 cells/well in a final volume of 25 μl/well. The cell plates were centrifuged at 200×g, for 2 minutes at 21° C., to create a monolayer of cells at the bottom of the wells.
To initiate an assay, 10 μl of test compound or buffer was added to each well of the cell plate and pre-incubated for 10 minutes in the dark. After 10 minutes, the cell plate was placed in a FDSS 6000 plate reader (Hamamatsu Photonics, Middlesex, N.J.); baseline fluorescence readings were collected for 20 seconds. Next, 25 μl of agonist solution (3 μM glutamate, 3 μM glycine, and 1 mM Ca^2+ in HBSS) was added and the change in fluorescence was recorded for 3 minutes.
Results were calculated by comparing the effects of test compounds to that of the literature standard GluN2C/D PAM CIQ (100 uM). The increase in fluorescence in the presence of CIQ minus the increase induced by glutamate+glycine alone was set to 100%. Responses induced by compounds that were larger than gain the presence of the standard concentration of CIQ were greater than 100% and lesser responses were less than 100%.

The target in assay [2] is T2, human GRIN1 (transcript variant NR1-3) and GRIN2D expressed in Xenopus oocytes (Homo sapiens, UniProt O15399).
T2 construct: GenScript (GRIN2D synthesis) SC115601; host or cells: Xenopus oocytes injected with cRNA (1 GluN1 : 2 GluN2)
T2 sequence (O15399 28-1336, other chains not shown): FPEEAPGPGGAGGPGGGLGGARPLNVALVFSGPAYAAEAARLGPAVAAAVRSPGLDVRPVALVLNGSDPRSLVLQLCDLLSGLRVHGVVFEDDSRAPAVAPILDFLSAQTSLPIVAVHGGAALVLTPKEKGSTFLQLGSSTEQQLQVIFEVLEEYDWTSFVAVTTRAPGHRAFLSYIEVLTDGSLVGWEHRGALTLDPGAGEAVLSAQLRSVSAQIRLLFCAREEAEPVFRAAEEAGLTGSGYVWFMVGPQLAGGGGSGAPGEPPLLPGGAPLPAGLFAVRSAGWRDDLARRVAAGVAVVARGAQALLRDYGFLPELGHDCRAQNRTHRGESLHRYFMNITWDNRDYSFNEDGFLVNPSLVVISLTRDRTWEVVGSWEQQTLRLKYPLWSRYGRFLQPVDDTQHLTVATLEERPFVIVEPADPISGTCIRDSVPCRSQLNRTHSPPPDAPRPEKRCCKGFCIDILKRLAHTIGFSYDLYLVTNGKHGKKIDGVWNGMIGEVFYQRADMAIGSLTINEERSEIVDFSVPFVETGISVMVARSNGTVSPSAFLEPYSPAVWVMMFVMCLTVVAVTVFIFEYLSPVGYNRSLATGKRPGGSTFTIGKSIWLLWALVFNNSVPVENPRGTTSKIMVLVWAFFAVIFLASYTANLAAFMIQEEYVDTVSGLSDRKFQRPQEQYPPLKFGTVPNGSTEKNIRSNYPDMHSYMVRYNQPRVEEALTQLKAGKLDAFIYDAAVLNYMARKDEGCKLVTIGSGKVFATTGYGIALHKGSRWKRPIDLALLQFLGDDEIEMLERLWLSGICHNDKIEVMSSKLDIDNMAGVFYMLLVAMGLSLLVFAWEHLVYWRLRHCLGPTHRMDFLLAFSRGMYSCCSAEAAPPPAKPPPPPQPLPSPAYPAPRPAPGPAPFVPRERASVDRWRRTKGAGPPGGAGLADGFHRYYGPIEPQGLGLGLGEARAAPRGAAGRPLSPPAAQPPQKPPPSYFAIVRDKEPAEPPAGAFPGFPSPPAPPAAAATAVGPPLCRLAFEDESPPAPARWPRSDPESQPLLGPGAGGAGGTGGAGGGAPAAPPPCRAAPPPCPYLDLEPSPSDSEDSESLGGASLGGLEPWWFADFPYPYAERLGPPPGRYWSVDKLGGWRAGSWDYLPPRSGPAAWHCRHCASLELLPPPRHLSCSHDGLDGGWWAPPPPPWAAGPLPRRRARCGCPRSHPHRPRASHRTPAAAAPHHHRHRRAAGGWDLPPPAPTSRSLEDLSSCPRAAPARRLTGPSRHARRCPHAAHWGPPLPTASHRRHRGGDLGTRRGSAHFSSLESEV
Briefly: NR2D oocyte potentiation assay (two-electrode voltage clamp). The class given is cell-based. Particulars: 10 uM test compound; glutamate and glycine 10 μM each; holding potential −40 mV. A digest of the protocol:
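Xenopus oocytes were defolliculated with collagenase, then injected with 50 nL of cRNA encoding human GluN1 (NR1-3 variant) and GluN2D mixed 1:2 and kept 72 h at 16° C. Two-electrode voltage clamp at −40 mV recorded currents; after 10 μM glutamate plus 10 μM glycine reached plateau, test compound was added until a new plateau formed.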

T1 sequence (O15399 28-1336, other chains not shown): as above

As for `C/N=c1/c(C#N)c(-c2ccc(C(C)(C)C)cc2)nc2n1CCCS2` [Example 37, (Z)-8-(4-(tert-butyl)phenyl)-6-(methylimino)-3,4-dihydro-2H,6H-pyrimido[2,1-b][1,3]thiazine-7-carbonitrile], the Emax in assay [1] was above 200%. Further, in assay [2], the activation at 10 µM was 500 to 1000%.
For the compound `CC(C)(C)c1ccc(-c2nc3n(c(=N)c2C#N)CCCS3)cn1` [Example 38, 8-(6-(tert-butyl)pyridin-3-yl)-6-imino-3,4-dihydro-2H,6H-pyrimido[2,1-b][1,3]thiazine-7-carbonitrile], the Emax in assay [1] lay in the range of 100 to 200%. For the same compound, the activation at 10 µM in assay [2] was above 1000%.
The like results for `CC1CSc2nc(-c3cnc(C(C)(C)C)nc3)c(C#N)c(=N)n2C1` (stereo not drawn) [Example 39, 8-(2-(tert-butyl)pyrimidin-5-yl)-6-imino-3-methyl-3,4-dihydro-2H,6H-pyrimido[2,1-b][1,3]thiazine-7-carbonitrile] were, in that order, above 200% and above 1000%.
Consider `CN(C)C(=O)/N=c1/c(C#N)c(-c2ccc(C(C)(C)C)cc2)nc2n1CCCS2` [Example 42, (Z)-3-(8-(4-(tert-butyl)phenyl)-7-cyano-3,4-dihydro-2H,6H-pyrimido[2,1-b][1,3]thiazin-6-ylidene)-1,1-dimethylurea], for which the Emax in assay [1] was 100 to 200%. Further, the activation at 10 µM in assay [2] was 100 to 500%.
`CC(C)(C)c1ccc(-c2nc3n(/c(=N\C(=O)C(F)(F)F)c2C#N)CCCS3)cc1` [Example 43, (Z)—N-(8-(4-(tert-butyl)phenyl)-7-cyano-3,4-dihydro-2H,6H-pyrimido[2,1-b][1,3]thiazin-6-ylidene)-2,2,2-trifluoroacetamide]: in assay [1], the Emax lay in the range of 10 to 50%. Moreover, the activation at 10 µM in assay [2] was in the range of 100 to 500%.
`C[C@H]1CSc2nc(-c3ccc(C(C)(C)C)nc3)c(C#N)c(=O)n2C1` [Example 44, (R)-8-(6-(tert-butyl)pyridin-3-yl)-3-methyl-6-oxo-3,4-dihydro-2H,6H-pyrimido[2,1-b][1,3]thiazine-7-carbonitrile]: the Emax in assay [1] fell in the range of 100 to 200%. In addition, the activation at 10 µM in assay [2] lay within 100 to 500%.
For the compound `C[C@@H]1CSc2nc(-c3ccc(C(C)(C)C)nc3)c(C#N)c(=O)n2C1` [Example 45, (S)-8-(6-(tert-butyl)pyridin-3-yl)-3-methyl-6-oxo-3,4-dihydro-2H,6H-pyrimido[2,1-b][1,3]thiazine-7-carbonitrile], the Emax in assay [1] was above 200%. Besides, the activation at 10 µM in assay [2] is above 1000%.
Consider `N#Cc1c(-c2ccc(C(F)(F)F)nc2)nc2n(c1=O)CCCS2` [Example 48, 6-oxo-8-(6-(trifluoromethyl)pyridin-3-yl)-3,4-dihydro-2H,6H-pyrimido[2,1-b][1,3]thiazine-7-carbonitrile], for which the Emax in assay [1] fell in the range of 10 to 50%. The activation at 10 µM in assay [2] is below 10%.
The like results for `CC1CSc2nc(-c3cnc(C(C)(C)C)nc3)c(C#N)c(=O)n2C1` (stereo not drawn) [Example 49, 8-(2-(tert-butyl)pyrimidin-5-yl)-3-methyl-6-oxo-3,4-dihydro-2H,6H-pyrimido[2,1-b][1,3]thiazine-7-carbonitrile] were, in that order, above 200% and above 1000%.
The like results for `CC1CCSc2nc(-c3ccc(C(C)(C)C)nc3)c(C#N)c(=O)n21` (stereo not drawn) [Example 50, 8-(6-(tert-butyl)pyridin-3-yl)-4-methyl-6-oxo-3,4-dihydro-2H,6H-pyrimido[2,1-b][1,3]thiazine-7-carbonitrile] were, in that order, 100 to 200% and 100 to 500%.
The like results for `CC1CSc2nc(-c3ccc(C(C)(C)C)nc3)c(C#N)c(=N)n2C1` (stereo not drawn) [Example 63, 8-(6-(tert-butyl)pyridin-3-yl)-6-imino-3-methyl-3,4-dihydro-2H,6H-pyrimido[2,1-b][1,3]thiazine-7-carbonitrile] were, in that order, above 200% and above 1000%.
As for `C[C@H]1CSc2nc(-c3ccc(C(C)(C)C)nc3)c(C#N)c(=N)n2C1` [Example 64, (R)-8-(6-(tert-butyl)pyridin-3-yl)-6-imino-3-methyl-3,4-dihydro-2H,6H-pyrimido[2,1-b][1,3]thiazine-7-carbonitrile], the Emax in assay [1] was 100 to 200%. In assay [2], the activation at 10 µM fell in the range of 100 to 500%.
The like results for `C[C@@H]1CSc2nc(-c3ccc(C(C)(C)C)nc3)c(C#N)c(=N)n2C1` [Example 65, (S)-8-(6-(tert-butyl)pyridin-3-yl)-6-imino-3-methyl-3,4-dihydro-2H,6H-pyrimido[2,1-b][1,3]thiazine-7-carbonitrile] were, in that order, above 200% and above 1000%.
The like results for `CC1CSc2nc(-c3ccc(N(C)C)nc3)c(C#N)c(=O)n2C1` (stereo not drawn) [Example 67, 8-[6-(dimethylamino)pyridin-3-yl]-3-methyl-6-oxo-2H,3H,4H,6H-pyrimido[2,1-b][1,3]thiazine-7-carbonitrile] were, in that order, 50 to 100% and 100 to 500%.
For `CC(C)(C)c1ccc(-c2nc3n(c(=O)c2C#N)CCCS3)cn1` [Example 174, 8-(6-tert-butyl-3-pyridinyl)-3,4-dihydro-6-oxo-2H,6H-pyrimido[2,1-b][1,3]thiazine-7-carbonitrile], in that order: 100 to 200% and 500 to 1000%.
In the case of `CC1CSc2nc(-c3ccc(C(C)(C)C)nc3)c(C#N)c(=O)n2C1` (stereo not drawn) [Example 175, 8-(6-tert-butylpyridin-3-yl)-3-methyl-6-oxo-2H,3H,4H,6H-pyrimido[2,1-b][1,3]thiazine-7-carbonitrile], the Emax in assay [1] lay within 100 to 200%. Also, the activation at 10 µM in assay [2] is above 1000%.
For `CC(C)(C)c1ncc(-c2nc3n(c(=O)c2C#N)CCCS3)cn1` [Example 176, 8-(2-tert-butylpyrimidin-5-yl)-6-oxo-2H,3H,4H,6H-pyrimido[2,1-b][1,3]thiazine-7-carbonitrile], in that order: 100 to 200% and 500 to 1000%.
The like results for `N#Cc1c(-c2cnc(C3CC3)nc2)nc2n(c1=O)CCCS2` [Example 178, 8-(2-cyclopropylpyrimidin-5-yl)-6-oxo-2H,3H,4H,6H-pyrimido[2,1-b][1,3]thiazine-7-carbonitrile] were, in that order, 100 to 200% and 10 to 100%.
For `CC(C)(C)c1cc(-c2nc3n(c(=O)c2C#N)CCCS3)ccn1` [Example 179, 8-(2-tert-butylpyridin-4-yl)-6-oxo-2H,3H,4H,6H-pyrimido[2,1-b][1,3]thiazine-7-carbonitrile], in that order: 100 to 200% and 10 to 100%.
With `N#Cc1c(-c2ccc(C3CC3)nc2)nc2n(c1=O)CCCS2` [Example 181, 8-(6-cyclopropylpyridin-3-yl)-6-oxo-2H,3H,4H,6H-pyrimido[2,1-b][1,3]thiazine-7-carbonitrile], in assay [1], the Emax was 100 to 200%. Also, the activation at 10 µM in assay [2] is 10 to 100%.
For `Cc1nc(C(C)(C)C)ccc1-c1nc2n(c(=O)c1C#N)CCCS2` [Example 182, 8-(6-tert-butyl-2-methylpyridin-3-yl)-6-oxo-2H,3H,4H,6H-pyrimido[2,1-b][1,3]thiazine-7-carbonitrile], in that order: 100 to 200% and 10 to 100%.
The like results for `CC(C)(C)c1ccc(-c2nc3n(c(=O)c2C#N)CCCS3)nc1` [Example 183, 8-(5-tert-butylpyridin-2-yl)-6-oxo-2H,3H,4H,6H-pyrimido[2,1-b][1,3]thiazine-7-carbonitrile] were, in that order, 100 to 200% and 10 to 100%.
On to `CC(C)(C)c1ccc(-c2nc3n(c(=O)c2C#N)CCCS3)cc1` [Example 184, 8-(4-tert-butylphenyl)-3,4-dihydro-6-oxo-2H,6H-pyrimido[2,1-b][1,3]thiazine-7-carbonitrile], for which the Emax in assay [1] lay in the range of 100 to 200%. Further, the activation at 10 µM in assay [2] was above 1000%.
For `N#Cc1c(-c2ccc(C3CC3)cc2)nc2n(c1=O)CCCS2` [Example 189, 8-(4-cyclopropylphenyl)-6-oxo-2H,3H,4H,6H-pyrimido[2,1-b][1,3]thiazine-7-carbonitrile], in that order: 10 to 50% and 10 to 100%.
